Laboratory results as given in PubChem BioAssay (NCI).
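Cells were grown in 96-well plates and exposed to each compound for 48 hours at five concentrations; endpoints were interpolated linearly between bracketing concentrations, or set to the highest concentration if not reached. GI50 is the concentration that inhibits growth by half. TGI denotes the concentration required for complete inhibition of growth.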

Tests used:
Test in all cases: NCI anticancer screen, dose series, 48 h
[1] = system: DU-145 prostate
[2] = system: NCI-H23 lung
[3] = system: UO-31 renal
[4] = system: PC-3 prostate
[5] = system: UACC-62 melanoma
[6] = system: BT-549 breast
[7] = system: CAKI-1 renal
[8] = system: NCI/ADR-RES ovarian
[9] = system: U251 CNS
[10] = system: 786-0 renal
[11] = system: KM12 colon
[12] = system: ACHN renal
[13] = system: LOX IMVI melanoma
[14] = system: COLO 205 colon
[15] = system: SW-620 colon
[16] = system: SK-MEL-28 melanoma
[17] = system: MCF7 breast
[18] = system: MOLT-4 leukemia
[19] = system: OVCAR-5 ovarian
[20] = system: UACC-257 melanoma
[21] = system: SK-MEL-2 melanoma
[22] = system: RPMI-8226 leukemia
[23] = system: SN12C renal
[24] = system: SK-MEL-5 melanoma
[25] = system: NCI-H460 lung
[26] = system: HCT-15 colon
[27] = system: A549 NSCLC
[28] = system: NCI-H522 lung
[29] = system: HCT-116 colon
[30] = system: IGROV1 ovarian
[31] = system: SK-OV-3 ovarian
[32] = system: SR leukemia
[33] = system: SNB-19 CNS
[34] = system: HL-60(TB) leukemia
[35] = system: CCRF-CEM leukemia
[36] = system: OVCAR-4 ovarian
[37] = system: A498 renal
[38] = system: SF-268 CNS
[39] = system: RXF 393 renal
[40] = system: MALME-3M melanoma
[41] = system: HOP-62 NSCLC
[42] = system: K-562 leukemia
[43] = system: T-47D breast
[44] = system: HOP-92 NSCLC
[45] = system: MDA-MB-231 breast
[46] = system: NCI-H226 lung
[47] = system: HCC-2998 colon
[48] = system: HT29 colon
[49] = system: TK-10 renal
[50] = system: M14 melanoma
[51] = system: MDA-MB-435
[52] = system: HS 578T breast
[53] = system: SF-539 CNS
[54] = system: OVCAR-3 ovarian
[55] = system: OVCAR-8 ovarian
[56] = system: SF-295 CNS
[57] = system: SNB-75 CNS
[58] = system: EKVX NSCLC

## COc1cc2ccnc(C=O)c2cc1OC
[1]
  GI50: 4.83 µM
  TGI: > 100 µM
[2]
  GI50: 24.9 µM
  TGI: > 100 µM
[3]
  GI50: 3.98 µM
  TGI: 42.2 µM
[4]
  GI50: 23.9 µM
  TGI: > 100 µM
[5]
  GI50: 6.87 µM
  TGI: 38.1 µM
[6]
  GI50: 2.68 µM
  TGI: 7.14 µM
[7]
  GI50: 23 µM
  TGI: 85.2 µM
[8]
  GI50: 16 µM
  TGI: > 100 µM
[9]
  GI50: 28.7 µM
  TGI: > 100 µM
[10]
  GI50: 18.3 µM
  TGI: > 100 µM
[11]
  GI50: 31.9 µM
  TGI: > 100 µM
[12]
  GI50: 4.71 µM
  TGI: 54.8 µM
[13]
  GI50: 10.1 µM
  TGI: > 100 µM
[14]
  GI50: > 100 µM
  TGI: > 100 µM
[15]
  GI50: 4.15 µM
  TGI: > 100 µM
[16]
  GI50: 12.4 µM
  TGI: > 100 µM
[17]
  GI50: 3.64 µM
  TGI: > 100 µM
[18]
  GI50: 4.52 µM
  TGI: 41.4 µM
[19]
  GI50: 17 µM
  TGI: > 100 µM
[20]
  GI50: 18.9 µM
  TGI: > 100 µM
[21]
  GI50: 37.1 µM
  TGI: > 100 µM
[22]
  GI50: 3.44 µM
  TGI: 34.8 µM
[23]
  GI50: 12.1 µM
  TGI: > 100 µM
[24]
  GI50: 10.7 µM
  TGI: 23.6 µM
[25]
  GI50: > 100 µM
  TGI: > 100 µM
[26]
  GI50: 3.43 µM
  TGI: > 100 µM
[27]
  GI50: > 100 µM
  TGI: > 100 µM
[28]
  GI50: 12.5 µM
  TGI: 31.3 µM
[29]
  GI50: 1.92 µM
  TGI: 14.8 µM
[30]
  GI50: 22.8 µM
  TGI: > 100 µM
[31]
  GI50: > 100 µM
  TGI: > 100 µM
[32]
  GI50: 0.696 µM
  TGI: > 100 µM
[33]
  GI50: > 100 µM
  TGI: > 100 µM
[34]
  GI50: 2.2 µM
  TGI: 5.89 µM
[35]
  GI50: 3.08 µM
  TGI: 22.1 µM
[36]
  GI50: 5.11 µM
  TGI: 24.2 µM
[37]
  GI50: > 100 µM
  TGI: > 100 µM
[38]
  GI50: 23.5 µM
  TGI: > 100 µM
[39]
  GI50: 1.45 µM
  TGI: 4.98 µM
[40]
  GI50: 14.7 µM
  TGI: > 100 µM
[41]
  GI50: 18.2 µM
  TGI: 98.1 µM
[42]
  GI50: 4.84 µM
  TGI: > 100 µM
[43]
  GI50: 14 µM
  TGI: > 100 µM
[44]
  GI50: 1.18 µM
  TGI: 5.93 µM
[45]
  GI50: 6.51 µM
  TGI: 75.1 µM
[46]
  GI50: 29.9 µM
  TGI: > 100 µM
[47]
  GI50: 23.8 µM
  TGI: > 100 µM
[48]
  GI50: 3.3 µM
  TGI: > 100 µM
[49]
  GI50: 6.02 µM
  TGI: 44.1 µM
[50]
  GI50: 4.98 µM
  TGI: 28.5 µM
[51]
  GI50: 2.63 µM
  TGI: 24.9 µM
[52]
  GI50: 23.8 µM
  TGI: > 100 µM
[53]
  GI50: 5.65 µM
  TGI: 29.7 µM
[54]
  GI50: 6.36 µM
  TGI: 90.6 µM
[55]
  GI50: 5.45 µM
  TGI: 63.4 µM

## O=C1Nc2ccccc2/C1=C\c1c(Cl)nc2sccn12
[1]
  GI50: 5.75 µM
  TGI: 53.4 µM
[2]
  GI50: 4.7 µM
  TGI: 17.1 µM
[3]
  GI50: 2.69 µM
  TGI: 16.8 µM
[4]
  GI50: 2.44 µM
  TGI: 23.9 µM
[5]
  GI50: 1.34 µM
  TGI: 11.9 µM
[6]
  GI50: 1.15 µM
  TGI: 12.7 µM
[7]
  GI50: 1.22 µM
  TGI: 4.8 µM
[8]
  GI50: 1.26 µM
  TGI: 7.64 µM
[9]
  GI50: 2.45 µM
  TGI: 8.31 µM
[10]
  GI50: 1.32 µM
  TGI: 4.94 µM
[11]
  GI50: 0.67 µM
  TGI: 19.4 µM
[12]
  GI50: 3.12 µM
  TGI: 18.2 µM
[13]
  GI50: 3.45 µM
  TGI: 17.4 µM
[14]
  GI50: 1.11 µM
  TGI: 5.97 µM
[15]
  GI50: 3 µM
  TGI: > 58.9 µM
[16]
  GI50: 4.91 µM
  TGI: 26.8 µM
[56]
  GI50: 1.11 µM
  TGI: 3.24 µM
[17]
  GI50: 0.66 µM
  TGI: 17.3 µM
[18]
  GI50: 3.52 µM
  TGI: > 100 µM
[19]
  GI50: 3.06 µM
  TGI: 9.39 µM
[20]
  GI50: 8.03 µM
  TGI: > 70.8 µM
[21]
  GI50: 4.16 µM
  TGI: > 41.2 µM
[22]
  GI50: 1.17 µM
  TGI: 4.48 µM
[23]
  GI50: 6.84 µM
  TGI: 20.6 µM
[24]
  GI50: 1.77 µM
  TGI: 8.51 µM
[25]
  GI50: 2.76 µM
  TGI: 29.8 µM
[26]
  GI50: 1.18 µM
  TGI: 8.46 µM
[27]
  GI50: 3.51 µM
  TGI: > 43.1 µM
[28]
  GI50: 3.9 µM
  TGI: 29.8 µM
[29]
  GI50: 1.94 µM
  TGI: 12.8 µM
[30]
  GI50: 5.05 µM
  TGI: > 54.6 µM
[31]
  GI50: 4.18 µM
  TGI: 10.8 µM
[32]
  GI50: 0.359 µM
  TGI: > 100 µM
[33]
  GI50: 6.78 µM
  TGI: 37.7 µM
[35]
  GI50: 2.68 µM
  TGI: 15.8 µM
[36]
  GI50: 13.9 µM
  TGI: > 61.4 µM
[37]
  GI50: 9.38 µM
  TGI: 22.4 µM
[38]
  GI50: 5.41 µM
  TGI: 29.5 µM
[39]
  GI50: 3.2 µM
  TGI: 19 µM
[40]
  GI50: 5.48 µM
  TGI: > 44.7 µM
[41]
  GI50: 1.82 µM
  TGI: 12.9 µM
[42]
  TGI: > 100 µM
[43]
  GI50: 8.88 µM
  TGI: 33.9 µM
[44]
  GI50: 4.31 µM
  TGI: 11.1 µM
[45]
  GI50: 6.87 µM
  TGI: 22.8 µM
[46]
  GI50: 6.11 µM
  TGI: 16 µM
[57]
  GI50: 3.23 µM
  TGI: 8.34 µM
[58]
  GI50: 1.88 µM
  TGI: 13.8 µM
[48]
  GI50: 1.32 µM
  TGI: > 32.2 µM
[49]
  GI50: 3.24 µM
  TGI: 8.21 µM
[50]
  GI50: 2.02 µM
  TGI: 9.23 µM
[51]
  GI50: 0.441 µM
  TGI: 1.11 µM
[52]
  GI50: 4.14 µM
  TGI: 35.7 µM
[53]
  GI50: 4.47 µM
  TGI: > 43.3 µM
[54]
  GI50: 1.36 µM
  TGI: 3.73 µM
[55]
  GI50: 3.85 µM
  TGI: 35.8 µM
